Measurements: ChEMBL document CHEMBL1687734, “Pharmacokinetics of EDP-420 after multiple oral doses in healthy adult volunteers and in a bioequivalence study” (Antimicrob Agents Chemother, 2009)

How the values were obtained:
Homo sapiens [1] = experiment: Toxicity in high-fat fed healthy human assessed as changes in liver functions at 200 mg, po administered as single dose of two-100 mg capsules; assay type: organism-based; settings: in vivo
[2] = Tmax in 8 hrs fasted healthy human plasma at 200 mg, po administered as single dose of two-100 mg capsules; assay type: ADME, organism-based
[3] = Cmax in 8 hrs fasted healthy human plasma at 200 mg, po administered as single dose of two-100 mg capsules; assay type: ADME, organism-based; design: dose 200 mg, route oral
[4] = Tmax in healthy human plasma at 200 mg, po once daily for 3 days measured after 3 days; assay type: ADME, organism-based
Homo sapiens [5] = experiment: Ratio of AUC (0 to 24 hrs) in healthy human plasma at 200 mg, po once daily for 3 days measured on day 3 to AUC (0 to 24 hrs) in healthy human plasma at 200 mg, po once daily for 3 days measured on day 1; assay type: ADME, organism-based; settings: in vivo
[6] = AUC (0 to last) in 8 hrs fasted healthy human plasma at 200 mg, po administered as single dose of suspension; assay type: ADME, organism-based; design: dose 200 mg, route oral, time 0 - last
Homo sapiens [7] = experiment: Toxicity in healthy human in 8 hrs fasted healthy human assessed as incidence of severe adverse events at 200 mg, po administered as single dose of two-100 mg capsules; assay type: organism-based; settings: in vivo
[8] = Ratio of AUC (0 to 24 hrs) in Alveolar macrophage of healthy human to AUC (0 to 24 hrs) in healthy human plasma at 400 mg, po administered as single dose; assay type: ADME, organism-based; settings: alveolar macrophages / plasma
[9] = Cmax in healthy human plasma at loading dose of 400 mg/day, po once daily for 3 days measured after 1 day; assay type: ADME, organism-based; design: dose 400 mg/day, route oral
[10] = Cmax in high-fat fed healthy human plasma at 200 mg, po administered as single dose of two-100 mg capsules; assay type: ADME, organism-based; design: dose 200 mg, route oral
Homo sapiens [11] = experiment: Toxicity in healthy human in 8 hrs fasted healthy human assessed as changes in physical examinations at 200 mg, po administered as single dose of two-100 mg capsules; assay type: organism-based; settings: in vivo
[12] = AUC (0 to infinity) in 8 hrs fasted healthy human plasma at 200 mg, po administered as single dose of suspension; assay type: ADME, organism-based; design: dose 200 mg, route oral, time infinity
[13] = AUC (0 to infinity) in high-fat fed healthy human plasma at 200 mg, po administered as single dose of two-100 mg capsules; assay type: ADME, organism-based; design: dose 200 mg, route oral, time infinity
Homo sapiens [14] = experiment: Ratio of AUC (0 to infinity) in 8 hrs fasted healthy human plasma at 200 mg, po administered as single dose of suspension to AUC (0 to infinity) in 8 hrs fasted healthy human plasma assessed as EDP-420 9-keto level at 200 mg, po administered as single dose of suspension; assay type: ADME, organism-based; settings: in vivo
[15] = Half life in healthy human plasma at 200 mg, po once daily for 3 days measured after 3 days; assay type: ADME, organism-based
Homo sapiens [16] = experiment: Toxicity in healthy human assessed as occurrence of mortality at 200 mg, po once daily for 3 days; assay type: organism-based; settings: in vivo, 72 h
[17] = Ratio of AUC (0 to 24 hrs) in epithelial lining fluid of healthy human to AUC (0 to 24 hrs) in healthy human plasma at 400 mg, po administered as single dose; assay type: ADME, organism-based
Homo sapiens [18] = experiment: Toxicity in high-fat fed healthy human assessed as incidence of severe adverse events at 200 mg, po administered as single dose of two-100 mg capsules; assay type: organism-based; settings: in vivo
[19] = Ratio of drug concentration in Epithelial lining fluid of healthy human at 400 mg, po administered as single dose after 24 hrs to drug concentration in Epithelial lining fluid of healthy human at 500 mg, po administered as single dose after 24 hrs; assay type: ADME, organism-based; settings: in vivo
Homo sapiens [20] = experiment: Toxicity in healthy human in 8 hrs fasted healthy human assessed as changes in vital signs at 200 mg, po administered as single dose of suspension; assay type: organism-based; settings: in vivo
Homo sapiens [21] = experiment: Toxicity in high-fat fed healthy human assessed as changes in ECG at 200 mg, po administered as single dose of two-100 mg capsules; assay type: organism-based; settings: in vivo
[22] = Tmax in healthy human plasma at 200 mg, po once daily for 3 days measured after 1 day; assay type: ADME, organism-based
[23] = Cmax in healthy human plasma at 200 mg, po once daily for 3 days measured after 1 day; assay type: ADME, organism-based; design: dose 200 mg, route oral
[24] = Tmax in 8 hrs fasted healthy human plasma at 200 mg, po administered as single dose of suspension; assay type: ADME, organism-based
[25] = AUC (0 to 24 hrs) in Epithelial lining fluid of healthy human at 400 mg, po administered as single dose; assay type: ADME, organism-based; settings: read-out: Drug uptake
[26] = Half life in high-fat fed healthy human plasma at 200 mg, po administered as single dose of two-100 mg capsules; assay type: ADME, organism-based
[27] = Ratio of drug concentration in Alveolar macrophage of healthy human at 400 mg, po administered as single dose after 24 hrs to drug concentration in Alveolar macrophage of healthy human at 500 mg, po administered as single dose after 24 hrs; assay type: ADME, organism-based; settings: in vivo
[28] = Tmax in healthy human plasma at loading dose of 400 mg/day, po once daily for 3 days measured after 1 day; assay type: ADME, organism-based
Homo sapiens [29] = experiment: Ratio of AUC (0 to infinity) in high-fat fed healthy human plasma at 200 mg, po administered as single dose of two-100 mg capsules to AUC (0 to infinity) in high-fat fed healthy human plasma assessed as EDP-420 9-keto level at 200 mg, po administered as single dose of two-100 mg capsules; assay type: ADME, organism-based; settings: in vivo

Compound: CC[C@H]1OC(=O)[C@H](C)C(=O)[C@H](C)[C@@H](O[C@@H]2O[C@H](C)C[C@H](N(C)C)[C@H]2O)[C@@]2(C)C[C@@H](C)/C(=N\C(C)=O)[C@H](C)[C@@H](OC/C(=N\OCc3ccc(-n4cccn4)nc3)CO2)[C@]1(C)O [MODITHROMYCIN]
- Activity (Homo sapiens [1]): Non-toxic
- Tmax [2]: 3.5 h
- Cmax [3]: 405 ng/mL
- Tmax [4]: 3.25 h
- Ratio AUC (Homo sapiens [5]): 1.41
- AUC(0-t) [6]: 8270 ng·h/mL
- Activity (Homo sapiens [7]): Non-toxic
- Kp [8]: 245
- Cmax [9]: 548 ng/mL
- Cmax [10]: 394 ng/mL
- Activity (Homo sapiens [11]): Non-toxic
- AUC(0-inf) [12]: 8350 ng·h/mL
- AUC(0-inf) [13]: 9040 ng·h/mL
- Ratio (Homo sapiens [14]): 0.101
- half-life [15]: 17.4 h
- Activity (Homo sapiens [16]): Non-toxic
- Kp [17]: 20.3
- Activity (Homo sapiens [18]): Non-toxic
- Ratio [19]: > 72
- Activity (Homo sapiens [20]): Non-toxic
- Activity (Homo sapiens [21]): Non-toxic
- Tmax [22]: 3.5 h
- Cmax [23]: 432 ng/mL
- Tmax [24]: 3.5 h
- AUC [25]: 212000 ng·h/mL
- half-life [26]: 16.9 h
- Ratio [27]: > 2
- Tmax [28]: 4 h
- Ratio (Homo sapiens [29]): 0.147
